From patent US20210380548A1, “Fused [1,2,4]Thiadiazine Derivatives Which Act as KAT Inhibitors of the MYST Family” (CTxT Pty Limited, priority 2017, published 2021) come the findings set out here.

Each structure is given as a SMILES string.

Assay [1] relates to histone H2A.Z Lysine 7 acetylation (TIP60 mediated) in U2OS cells. Nature of the assay: H2A.Z Lysine 7 Acetylation Biomarker Assay (96 well, U2OS). Type of assay: cell-based. As to conditions: Homo sapiens, Table 7, H2A.Z K7ac, 24 hours incubation, serum free medium. Here is the method: To discover a global TIP60/KAT5 cellular biomarker useful for monitoring PD responses of TIP60 inhibition in vitro and in vivo, various histone modifications were assessed for TIP60 dependence through genetic (TIP60 siRNA and CRISPR/Cas9) or TIP60 pharmacological inhibition. This analysis clearly identified acetylation of the histone variant H2A.Z at Lysine 7 (H2A.ZK7ac) as a global histone mark which is TIP60-dependent in both human and mouse cells. To a lesser extent, TIP60 also acetylated lysine 4 and 11 of H2A.Z.
Compounds may be tested for their ability to inhibit the histone H2A.Z Lysine 7 acetylation biomarker (which is TIP60 mediated) in the following assay:
The cell line U2OS was seeded at a density of 9,000 cells per well in 96 well optical quality tissue culture plates in RPMI medium and 10% foetal bovine serum, and allowed to adhere for 24 hours under standard culture conditions (37 degree Celsius, 5% CO2). At the end of this period the cells were washed with serum free medium. Compound dilutions prepared in DMSO were added to the serum free medium, with negative control wells reserved for treatment with DMSO only and positive controls receiving a potent inhibitor compound (e.g. Example 146) at 20 μM concentration. After incubation for 24 hours, the cells were fixed with 3.7% formaldehyde in PBS for 20 minutes at room temperature, washed with phosphate buffer saline containing 0.1% Tween 20 and blocked with Odyssey blocking buffer (LI-COR, Lincoln, Nebr.) containing 0.1% TritonX100. Anti-H2A.Z K7ac specific antibody (Abcam) in Odyssey blocking buffer containing 0.1% Tween 20 was added and incubated for 14 hours at 4 degree Celsius. After washing, a secondary antibody labelled with Alexa647 dye (LifeTechnologies) and Hoechst 33342 (10 μM, SigmaAldrich) were added for 1 hour incubation. Plates were washed and read on a PerkinElmer Phenix high content imaging platform. Using a Columbus image analysis pipeline, individual nuclei were located by Hoechst 33342 stain and the acetylation level was calculated from the Alexa647-related intensity in the same area. The resulting mean intensity per cell was directly converted to percent inhibition relative to controls on the same plate and the data fitted against a four-parameter logistic model to determine the 50% inhibitory concentration (IC50).

The target in assay [2] is T1, HBO-KAT7 (Homo sapiens, UniProt O95251).
T1 construct: encoding amino acid residues 325 to 611 (Uniprot 095251-1) of human KAT7; made in house; host or cells: E. coli BL21 DE3 RIL
T1 sequence (O95251 with tags, fused parts or gaps): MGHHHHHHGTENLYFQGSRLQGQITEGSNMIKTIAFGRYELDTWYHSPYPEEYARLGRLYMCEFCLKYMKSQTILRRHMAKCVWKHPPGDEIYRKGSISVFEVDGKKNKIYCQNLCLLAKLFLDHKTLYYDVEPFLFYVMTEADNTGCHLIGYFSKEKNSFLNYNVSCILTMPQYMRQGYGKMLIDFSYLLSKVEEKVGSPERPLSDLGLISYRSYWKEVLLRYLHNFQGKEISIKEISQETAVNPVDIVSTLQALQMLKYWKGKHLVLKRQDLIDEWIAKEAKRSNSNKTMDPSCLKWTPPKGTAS
Briefly: Acetyltransferase biochemical assay (AlphaScreen), KAT7. As to conditions: Table 3 (HBO-KAT7); 0.4 μM Acetyl coenzyme A, histone H3.1, 40 nM enzyme.

In assay [3] the target is T2, MOF-KAT8 (Homo sapiens, UniProt Q9H7Z6).
T2 sequence (Q9H7Z6 177-447): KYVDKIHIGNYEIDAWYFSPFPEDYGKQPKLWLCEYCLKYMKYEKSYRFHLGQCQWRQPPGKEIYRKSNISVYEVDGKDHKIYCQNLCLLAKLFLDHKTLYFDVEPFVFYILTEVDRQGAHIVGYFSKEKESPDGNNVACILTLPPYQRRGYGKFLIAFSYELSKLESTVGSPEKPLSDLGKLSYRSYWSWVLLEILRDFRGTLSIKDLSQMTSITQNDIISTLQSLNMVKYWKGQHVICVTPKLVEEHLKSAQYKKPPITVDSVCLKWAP
Nature of the assay: Acetyltransferase biochemical assay (AlphaScreen), KAT8. As to conditions: Table 4 (MOF-KAT8); 0.4 μM Acetyl coenzyme A, histone H4, 20 nM enzyme.

The next assay addresses T3, MOZ-KAT6A (Homo sapiens, UniProt Q92794, A567V).
T3 construct: encoding amino acid residues 507 to 778 (Uniprot Q92794-1) of human KAT6A; made in house; host or cells: E. coli BL21 DE3
Nature of the assay: Revised Acetyltransferase Biochemical Assay, KAT6A. The settings on record: Table 8 (MOZ-KAT6A), 1 μM Acetyl coenzyme A.

The target in assay [4] is T1, HBO-KAT7. Briefly: Revised Acetyltransferase Biochemical Assay, KAT7. The settings on record: Table 9 (HBO-KAT7), 1 μM Acetyl coenzyme A.
Assay [5] concerns histone H3K23 acetylation (KATE mediated) in U2OS cells. Nature of the assay: Histone H3 Lysine 23 Acetylation Biomarker Assay (U2OS). Type of assay: cell-based. As to conditions: Homo sapiens, 96 well, 24 hours incubation. The method, boiled down:
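U2OS cells were treated with compound for 24 h, then fixed and immunostained for H3K23ac with Hoechst nuclear counterstain. Per-nucleus Alexa647 intensity was quantified by high-content imaging and converted to % inhibition against DMSO and 10 μM reference-inhibitor controls. IC50 was derived from a four-parameter logistic fit.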

The target in assay [6] is T2, MOF-KAT8. Briefly: Revised Acetyltransferase Biochemical Assay, KAT8.

T3 sequence (Q92794 507-778 A567V limits assumed): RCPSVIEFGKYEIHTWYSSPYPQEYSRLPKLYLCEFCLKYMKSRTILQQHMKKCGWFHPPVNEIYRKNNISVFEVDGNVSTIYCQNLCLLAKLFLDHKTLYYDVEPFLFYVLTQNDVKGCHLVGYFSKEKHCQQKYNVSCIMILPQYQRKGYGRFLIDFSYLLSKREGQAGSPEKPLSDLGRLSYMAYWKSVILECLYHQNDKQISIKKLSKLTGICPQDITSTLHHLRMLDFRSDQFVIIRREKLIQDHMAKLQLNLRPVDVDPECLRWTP

For the compound `O=C(NCC(c1ccccc1)c1ncco1)C1=Nc2ccc(Br)cc2S(=O)(=O)N1` (stereo not drawn) [Example 1, 7-Bromo-N-(2-(oxazol-2-yl)-2-phenylethyl)-2H-benzo[e][1,2,4]thiadiazine-3-carboxamide 1,1-dioxide], the IC50 in assay [1] was determined as 2180 nM; at HBO-KAT7 [2], 63.8 nM; on MOF-KAT8 [3] it was 14600 nM; at MOZ-KAT6A, 5 nM; on HBO-KAT7 [4], 76 nM; in assay [5], 64 nM. In addition, it took 4540 nM to reach half-maximal inhibition against MOF-KAT8 [6] (IC50).

With `O=C(NCC(c1ccccc1)c1ncco1)C1=Nc2ccccc2S(=O)(=O)N1` (stereo not drawn) [Example 46, N-(2-(oxazol-2-yl)-2-phenylethyl)-2H-benzo[e][1,2,4]thiadiazine-3-carboxamide 1,1-dioxide], the IC50 amounted to 30000 nM in assay [1]; 2650 nM on HBO-KAT7 [2]; 88200 nM on MOF-KAT8 [3]; 64 nM at MOZ-KAT6A; 1080 nM against HBO-KAT7 [4]; 178 nM in assay [5]. The compound also returned a 50% inhibitory concentration (IC50) at MOF-KAT8 [6] of 99400 nM.

Take `O=C(NCCc1ccccc1-n1nccn1)C1=Nc2ccc(I)cc2S(=O)(=O)N1` [Example 60, N-(2-(2H-1,2,3-triazol-2-yl)phenethyl)-7-iodo-2H-benzo[e][1,2,4]thiadiazine-3-carboxamide 1,1-dioxide]: the concentration for half-maximal inhibition (IC50) in assay [1] turned out to be 2060 nM; on HBO-KAT7 [2], 555 nM; at MOZ-KAT6A, 10 nM; at HBO-KAT7 [4], 201 nM; in assay [5] it was 1420 nM; against MOF-KAT8 [6], 24000 nM.

As to `O=C(NCCc1ccccc1OC(F)F)C1=Nc2ccc(I)cc2S(=O)(=O)N1` [Example 91], the half-inhibitory concentration (IC50) in assay [1] is 10000 nM; on HBO-KAT7 [2], 339 nM; against MOF-KAT8 [3], 12100 nM; on MOZ-KAT6A it was 24 nM; against HBO-KAT7 [4] it was 74 nM; in assay [5] it was 7690 nM. Besides, half-maximal inhibition at MOF-KAT8 [6] (IC50) was put at 21100 nM.
